The record followed here is patent US9085575B2, “Tri- and tetracyclic pyrazolo[3,4-B]pyridine compounds as antineoplastic agent” (PIERRE FABRE MEDICAMENT, priority 2011, dated 2015).

A value given as a limit tells only on which side of the number the result lay.

Sequence of ALK (Q9UM73 19-1620): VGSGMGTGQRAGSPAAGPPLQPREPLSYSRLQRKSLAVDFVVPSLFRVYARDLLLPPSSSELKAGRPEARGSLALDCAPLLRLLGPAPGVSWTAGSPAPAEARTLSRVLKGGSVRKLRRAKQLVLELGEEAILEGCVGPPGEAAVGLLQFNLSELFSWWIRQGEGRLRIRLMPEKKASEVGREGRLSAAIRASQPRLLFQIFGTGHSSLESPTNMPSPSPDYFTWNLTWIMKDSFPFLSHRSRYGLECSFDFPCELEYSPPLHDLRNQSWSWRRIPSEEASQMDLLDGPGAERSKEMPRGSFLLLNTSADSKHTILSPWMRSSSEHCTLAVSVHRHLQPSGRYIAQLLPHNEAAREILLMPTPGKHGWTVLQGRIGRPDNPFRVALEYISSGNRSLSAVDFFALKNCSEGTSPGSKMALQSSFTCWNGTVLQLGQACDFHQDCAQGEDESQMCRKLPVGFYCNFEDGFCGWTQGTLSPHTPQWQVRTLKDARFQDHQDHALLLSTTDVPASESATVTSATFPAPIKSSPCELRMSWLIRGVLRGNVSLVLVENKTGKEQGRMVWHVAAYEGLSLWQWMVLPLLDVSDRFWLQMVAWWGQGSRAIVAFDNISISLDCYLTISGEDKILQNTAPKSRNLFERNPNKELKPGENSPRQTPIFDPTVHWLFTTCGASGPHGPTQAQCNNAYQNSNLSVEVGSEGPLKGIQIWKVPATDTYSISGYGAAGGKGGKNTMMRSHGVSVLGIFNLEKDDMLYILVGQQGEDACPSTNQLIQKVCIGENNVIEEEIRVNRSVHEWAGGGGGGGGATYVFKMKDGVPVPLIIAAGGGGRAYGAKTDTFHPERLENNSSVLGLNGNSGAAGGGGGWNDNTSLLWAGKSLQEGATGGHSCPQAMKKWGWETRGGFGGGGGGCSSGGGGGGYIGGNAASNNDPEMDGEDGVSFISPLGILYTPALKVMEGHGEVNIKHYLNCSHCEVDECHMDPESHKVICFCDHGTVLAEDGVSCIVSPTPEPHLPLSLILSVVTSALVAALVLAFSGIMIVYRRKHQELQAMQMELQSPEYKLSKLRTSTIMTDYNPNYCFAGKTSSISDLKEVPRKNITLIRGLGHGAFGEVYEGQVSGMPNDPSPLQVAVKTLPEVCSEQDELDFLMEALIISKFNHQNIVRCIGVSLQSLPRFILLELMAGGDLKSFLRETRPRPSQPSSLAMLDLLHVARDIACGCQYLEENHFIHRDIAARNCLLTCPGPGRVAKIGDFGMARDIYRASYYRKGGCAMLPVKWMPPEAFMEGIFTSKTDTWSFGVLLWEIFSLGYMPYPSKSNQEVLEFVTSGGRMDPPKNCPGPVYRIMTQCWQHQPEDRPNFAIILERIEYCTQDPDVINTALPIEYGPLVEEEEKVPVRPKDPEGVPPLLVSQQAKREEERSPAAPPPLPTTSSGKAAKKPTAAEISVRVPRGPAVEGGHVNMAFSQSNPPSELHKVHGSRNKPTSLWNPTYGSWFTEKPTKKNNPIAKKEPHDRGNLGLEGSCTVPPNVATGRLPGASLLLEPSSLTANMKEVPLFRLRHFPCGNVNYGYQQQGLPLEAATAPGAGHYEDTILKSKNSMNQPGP

One experiment concerns the target ALK (Homo sapiens, UniProt Q9UM73). The experiment can be described thus: Test for measurement of ALK inhibition (ELISA, GST-PLCγ1 substrate, luminescence). As to conditions: comparative tests; read-out: Alk enzymatic inhibition (IC50). In kind it is biochemical. As to the method: Test for Measurement of ALK Inhibition
A ViewPlate microplate (Packard) is incubated with 0.1 mg/ml GST-PLCγ1 substrate (purified recombinant form) in phosphate buffer (PBS, pH 7.4) (100 μl/well) for one hour under stirring. The plate is then saturated with blocking solution comprising 5% bovine serum albumin (BSA) (Sigma) in PBS buffer, pH 7.4.
After having added the inhibitor at the desired final concentration (typical range between 30 μM and 10 nM), the reaction is carried out by adding 180 ng/ml ALK to a reaction buffer comprised of 13 mM Tris, pH 7.5 (Sigma); 6.5 mM MgCl2 (Merck); 0.65 mM dithiothreitol (DTT) (Acros); 39 mM sodium β-glycerophosphate (TCI); 0.65 mM sodium orthovanadate (Sigma); and 250 μM ATP (Sigma). Incubation is carried out for 30 minutes at 30° C. under stirring.
After three washings under stirring in 0.1% PBS/Tween-20 buffer (Sigma), an anti-phosphotyrosine antibody, coupled with HRP (UBI) diluted to 1/1000 in 5 mg/ml PBS/BSA buffer, is incubated for one hour with stirring. After three new washings in 0.1% PBS/Tween-20, the wells are incubated for two minutes with 100 μl of SuperSignal ELISA mixture (Pierce).
The signal is read in luminescence mode using a luminometer (SpectraMax M5e, Molecular Devices).
In general terms: An ELISA detects its analyte on a solid surface through an enzyme-linked reagent.
In the case of `Cc1n[nH]c2nc(-c3ccc(O)cc3)c3cnc4ccccc4c3c12` [Compound 06], the IC50 is 35 nM.

Consider `Cc1n[nH]c2nc(-c3ccc(O)cc3)c3ccccc3c12` [Comparative compound 98, reference compound], for which the IC50 was found to be 70 nM.

For the compound `Cc1n[nH]c2nc(-c3ccc(O)cc3)c3c(=O)[nH]c4ccccc4c3c12` [Compound 02], the concentration for half-maximal inhibition (IC50) is 2.5 nM.

Still in this experiment, the particulars now being: enzymatic IC50 on ALK, 250 μM ATP, class symbols; read-out: IC50 (ALK).
In the case of `O=c1[nH]c2cc(N3CCNCC3)ccc2c2c1c(-c1ccc(O)cc1)nc1[nH]nc(-c3ccco3)c12` [Compound 16], the half-inhibitory concentration (IC50) was < 100 nM.

As for `Cc1n[nH]c2nc(-c3ccc(O)cc3)c3c(=O)[nH]c4cc(OCCCN5CCNCC5)ccc4c3c12` [Compound 13], the concentration for half-maximal inhibition (IC50) is < 100 nM.

Turning to `Cc1n[nH]c2nc(-c3ccc(O)cc3)c3c(=O)oc(-c4ccccc4)cc3c12` [Compound 28], the half-maximal inhibitory concentration (IC50) is 100 to 1000 nM.

As for `Nc1n[nH]c2nc(-c3ccc(O)cc3)c3c(=O)[nH]c4ccc(N5CCNCC5)cc4c3c12` [Compound 25], the IC50 is < 100 nM.

In the case of `Cc1n[nH]c2nc(-c3ccc(O)cc3)c3c(=O)[nH]ccc3c12` [Compound 35], the half-maximal inhibitory concentration (IC50) lay in the range of 1000 to 10000 nM.

For the compound `Nc1n[nH]c2nc(-c3ccc(O)cc3)c3c(=O)[nH]ccc3c12` [Compound 39], the IC50 lay within 1000 to 10000 nM.

On to `Cc1n[nH]c2nc(-c3ccc(O)cc3)c3c(=O)[nH]c4cc(N5CCN(C6CCN(C)CC6)CC5)ccc4c3c12` [Compound 21], for which the IC50 was < 100 nM.

As for `CCn1c(=O)c2c(-c3ccc(O)c(C(F)(F)F)c3)nc3[nH]nc(C)c3c2c2ccc(N3CCNCC3)cc21` [Compound 46], the 50% inhibitory concentration (IC50) was < 100 nM.

For `CCn1c(=O)c2c(-c3ccc(O)cc3)nc3[nH]nc(C)c3c2c2ccc(N3CCNCC3)cc21` [Compound 20], the IC50 was < 100 nM.

In the case of `CCn1c(=O)c2c(-c3ccc(O)cc3)nc3[nH]nc(N)c3c2c2ccc(N3CCNCC3)cc21` [Compound 37], the half-inhibitory concentration (IC50) was < 100 nM.

Consider `CCn1ccc2c(c(-c3ccc(O)cc3)nc3[nH]nc(C)c32)c1=O` [Compound 44], for which the IC50 fell in the range of 1000 to 10000 nM.

On to `CN1CCN(c2ccc(C(=O)Nc3n[nH]c4nc(-c5ccc(O)cc5)c5c(=O)[nH]c6ccccc6c5c34)cc2)CC1` [Compound 52], for which the IC50 is < 100 nM.

Take `Cc1n[nH]c2nc(-c3cc(O)cc(F)c3)c3c(=O)[nH]c4cc(N5CCNCC5)ccc4c3c12` [Compound 30]: the IC50 is < 100 nM.

As for `Cc1n[nH]c2nc(-c3ccc(O)cc3)c3c(=O)n(CCCN4CC[C@@H](N)C4)c4ccccc4c3c12` [Compound 14], the half-maximal inhibitory concentration (IC50) was < 100 nM.

In the case of `CCOc1nc2cc(N3CCNCC3)ccc2c2c1c(-c1ccc(O)c(C(F)(F)F)c1)nc1[nH]nc(C)c12` [Compound 47], the half-maximal inhibitory concentration (IC50) fell in the range of 100 to 1000 nM.

Regarding `CCOc1ccc(-c2nc3[nH]nc(C)c3c3c2c(=O)[nH]c2cc(N4CCNCC4)ccc23)cc1` [Compound 19], the 50% inhibitory concentration (IC50) was < 100 nM.

For the compound `Cc1n[nH]c2nc(-c3ccc(O)cc3)c3c(=O)[nH]c4cc(N5CCNCC5)ccc4c3c12` [Compound 04], the IC50 was < 100 nM.

Consider `Cc1n[nH]c2nc(-c3ccc(O)c(C(=O)O)c3)c3c(=O)[nH]c4cc(N5CCNCC5)ccc4c3c12` [Compound 27], for which the IC50 lay within 1000 to 10000 nM.

As for `Nc1n[nH]c2nc(-c3ccc(O)cc3)c3c(=O)n(O)c4ccccc4c3c12` [Compound 42], the 50% inhibitory concentration (IC50) was < 100 nM.

For `Cc1n[nH]c2nc(-c3ccc(O)cc3)c3c(=O)n(CCCN(C)C)c4cc(N5CCNCC5)ccc4c3c12` [Compound 12], the IC50 is < 100 nM.

In the case of `O=C1c2cc(N3CCNCC3)ccc2-c2c1c(-c1c(F)ccc(F)c1F)nc1[nH]nc(-c3cccs3)c21` [Compound 03], the IC50 was in the range of 1000 to 10000 nM.

Take `Nc1n[nH]c2nc(-c3ccc(O)cc3)c3c(=O)[nH]c4ccccc4c3c12` [Compound 24]: the IC50 was < 100 nM.

`Cc1n[nH]c2nc(-c3ccc(O)cc3)c3c(=O)[nH]c4cc(N5CC[C@@H](N)C5)ccc4c3c12` [Compound 11]: the 50% inhibitory concentration (IC50) is < 100 nM.

With `Cc1n[nH]c2nc(-c3ccc(O)cc3)c3c(=O)oc4ccccc4c3c12` [Compound 09], the IC50 was in the range of 100 to 1000 nM.

`COc1ccc(-c2nc3[nH]nc(N)c3c3c2c(=O)[nH]c2ccc(N4CCNCC4)cc23)cc1` [Compound 22]: the half-maximal inhibitory concentration (IC50) was in the range of 1000 to 10000 nM.

On to `CCn1cc(-c2ccc(N3CCNCC3)cc2)c2c(c(-c3ccc(O)cc3)nc3[nH]nc(N)c32)c1=O` [Compound 54], for which the IC50 was in the range of 1000 to 10000 nM.

As for `Nc1n[nH]c2nc(-c3cc(F)cc(F)c3)c3c(=O)[nH]c4cc(N5CCNCC5)ccc4c3c12` [Compound 36], the IC50 fell in the range of 1000 to 10000 nM.

With `Cc1n[nH]c2nc(-c3ccc(O)cc3)c3c(=O)[nH]c4ccccc4c3c12` [Compound 02], the half-inhibitory concentration (IC50) is < 100 nM.

For `Cc1n[nH]c2nc(-c3ccc(O)cc3)c3c(=O)n(CCN4CCNCC4)c4ccccc4c3c12` [Compound 15], the IC50 is 100 to 1000 nM.

For `Nc1n[nH]c2nc(-c3ccc(O)cc3)c3c(=O)[nH]c4cc(N5CCNCC5)ccc4c3c12` [Compound 32], the half-maximal inhibitory concentration (IC50) was < 100 nM.

On to `COc1ccc(-c2nc3[nH]nc(N)c3c3c2c(=O)[nH]c2cc(N4CCNCC4)ccc23)cc1` [Compound 51], for which the concentration for half-maximal inhibition (IC50) is < 100 nM.

For `Nc1n[nH]c2nc(-c3ccc(O)cc3F)c3c(=O)[nH]c4ccccc4c3c12` [Compound 38], the IC50 is < 100 nM.

On to `CCOc1cc(F)cc(-c2nc3[nH]nc(C)c3c3c2c(=O)n(CC)c2cc(N4CCNCC4)ccc32)c1` [Compound 33], for which the IC50 is < 100 nM.

With `CCOC(=O)Oc1ccc(-c2nc3c(c(C)nn3C(=O)OCC)c3c2c(=O)[nH]c2cc(N4CCN(C(=O)OCC)CC4)ccc23)cc1` [Compound 48], the half-maximal inhibitory concentration (IC50) was in the range of 1000 to 10000 nM.

Turning to `Cc1nn(C(=O)OC(C)(C)C)c2nc(-c3ccc(OC(=O)C(C)(C)C)cc3)c3c(=O)[nH]c4cc(N5CCN(C(=O)OC(C)(C)C)CC5)ccc4c3c12` [Compound 50], the half-maximal inhibitory concentration (IC50) lay within 100 to 1000 nM.

As to `Cc1n[nH]c2nc(-c3ccc(O)cc3)c3c(c12)CCNC3=O` [Compound 53], the half-inhibitory concentration (IC50) is < 100 nM.

Regarding `Cc1n[nH]c2nc(-c3ccc(O)cc3)c3c(=O)n(CCCN4CCN(C)CC4)c4ccccc4c3c12` [Compound 10], the IC50 is < 100 nM.

For the compound `Cc1n[nH]c2nc(-c3ccc(O)cc3)c3c(=O)n(CCCN(C)C)c4ccccc4c3c12` [Compound 07], the IC50 is < 100 nM.

In the case of `CC(=O)Oc1ccc(-c2nc3c(c(C)nn3C(C)=O)c3c2c(=O)[nH]c2cc(N4CCNCC4)ccc23)cc1` [Compound 49], the 50% inhibitory concentration (IC50) is < 100 nM.

Regarding `COc1ccc(-c2nc3[nH]nc(C)c3c3c2c(=O)oc2ccccc23)cc1` [Compound 08], the half-maximal inhibitory concentration (IC50) lay within 1000 to 10000 nM.

For `Cn1ccc2c(c(-c3cc(F)cc(F)c3)nc3[nH]nc(N)c32)c1=O` [Compound 45], the half-inhibitory concentration (IC50) was 1000 to 10000 nM.

For `CC(=O)Oc1ccc(-c2nc3[nH]nc(C)c3c3c2c(=O)[nH]c2cc(N4CCNCC4)ccc23)cc1` [Compound 17], the 50% inhibitory concentration (IC50) was < 100 nM.

On to `Cc1n[nH]c2nc(-c3ccc(O)c(C(F)(F)F)c3)c3c(=O)[nH]c4cc(N5CCNCC5)ccc4c3c12` [Compound 41], for which the IC50 lay in the range of 100 to 1000 nM.

Turning to `Cc1n[nH]c2nc(-c3ccc(O)cc3)c3c(=O)[nH]c4cc(N5CCC(N)CC5)ccc4c3c12` [Compound 18], the IC50 was < 100 nM.

Turning to `Cc1cc2c(o1)-c1c(c(-c3ccc(O)cc3)nc3[nH]nc(C)c13)C2=O` [Compound 01], the IC50 is < 100 nM.

`O=c1[nH]c2ccccc2c2c1c(-c1ccc(O)cc1)nc1[nH]nc(-c3ccc(N4CCNCC4)cc3)c12` [Compound 05]: the concentration for half-maximal inhibition (IC50) is < 100 nM.

Regarding `CCn1c(=O)c2c(-c3cc(F)cc(F)c3)nc3[nH]nc(N)c3c2c2ccc(N3CCNCC3)cc21` [Compound 55], the IC50 lay within 100 to 1000 nM.

`CC(=O)Nc1n[nH]c2nc(-c3ccc(O)cc3)c3c(=O)[nH]c4ccccc4c3c12` [Compound 23]: the half-inhibitory concentration (IC50) was < 100 nM.

In the case of `Cc1n[nH]c2nc(-c3cc(F)cc(F)c3)c3c(=O)[nH]c4cc(N5CCNCC5)ccc4c3c12` [Compound 31], the IC50 fell in the range of 1000 to 10000 nM.

The test system of another experiment is Karpas 299 cells. The experiment can be described thus: Test for measurement of cell proliferation inhibition (Karpas 299), ATPlite. Type of experiment: cell-based. As to conditions: Homo sapiens, Karpas 299 cell line, 72 hours. As to the method: Test for Measurement of Cell Prolifearation Inhibition (Karpas 299)
The antiproliferative activity of the compounds according to the invention has been measured by the ATPlite technique (Perkin Ekmer).
Human cells of non-adherent anaplasic large cell lymphoma (Karpas 299) are seeded in 96-well plates (300,000 cells/ml) on day 1, at a concentration compatible with a logarithmic growth for 72 hours necessary for the evaluation of the compounds according to the invention. All the cells are treated on day 1 and then placed in an incubator at 37° C., under a 5% CO2 atmosphere. Cell viability is evaluated on day 4 by dosing the emitted ATP, which is a characteristic of viable cells. IC50s are determined by a non linear regression based on a sigmoidal model of dose/response relationship, the Hill coefficient being let variable, performed with the GraphPad software according to the algorithm provided.
Background: In ATP-based viability assays light output follows the ATP content of the culture.
For the compound `Cc1n[nH]c2nc(-c3ccc(O)cc3)c3cnc4ccccc4c3c12` [Compound 06], the IC50 came to 1000 nM.

In the case of `Cc1n[nH]c2nc(-c3ccc(O)cc3)c3ccccc3c12` [Comparative compound 98, reference compound], the midpoint of inhibition, the IC50, lay at 4040 nM.

For `Cc1n[nH]c2nc(-c3ccc(O)cc3)c3c(=O)[nH]c4ccccc4c3c12` [Compound 02], the IC50 was 168 nM.

One may read the IC50 as the concentration at which inhibition is half-maximal.
